Each structure is given as a SMILES string. Read-outs that look alike come from different tables or passages of the source.

Experimental findings from patent publication US12240857B2 (priority 2017, dated 2025) are described below.

The subject of data set [1] is parent VSV virus expressing the native VSV glycoprotein. Nature of the data set: microbe, parasite or virus in culture. The conditions noted are these: Vesicular stomatitis virus, Vero; for EC50: read-out: EC50 Pseudotype Assays VSV; for inhibition at 5 µM: read-out: VSV % inh. at 5 μM. Type of data set: cell-based.
The subject of data set [2] is full-length Marburgvirus (MARV) GP pseudotyped VSV. Description: microbe, parasite or virus in culture. It counts as cell-based, Marburg marburgvirus. The conditions noted are these: Orthomarburgvirus, read-out: EC50 Pseudotype Assays MARV.
The test system of data set [3] is full-length Ebola Zaire GP pseudotyped VSV (EBOV_FL). Description: microbe, parasite or virus in culture. Type of data set: cell-based. The following applies: Zaire ebolavirus, read-out: EC50 Pseudotype Assays EBOV_FL.
In data set [4] the test system is BDBV mucin-domain-deleted glycoprotein pseudotyped VSV. Description: microbe, parasite or virus in culture. It counts as cell-based, Bundibugyo ebolavirus.
The test system of data set [5] is full-length LASV glycoprotein pseudotyped VSV. Nature of the data set: microbe, parasite or virus in culture. It counts as cell-based, Lassa virus. The conditions noted are these: Vesicular stomatitis virus, read-out: EC50 Pseudotype Assays LASV.
The next data set in a line: in vitro. The conditions noted are these: African green monkey.
Data set [6] has as its system EBOV mucin-domain-deleted glycoprotein pseudotyped VSV. Nature of the data set: microbe, parasite or virus in culture. It counts as cell-based, Zaire ebolavirus.
Data set [7] has as its system wild-type Ebola Zaire. Description: microbe, parasite or virus in culture. The following applies: Zaire ebolavirus, HeLa, read-out: Ebola Zaire EC50.
Data set [8] deals with wild-type Ebola Zaire.
Another data set deals with Vero cells. The conditions noted are these: for % cell viability at 5 μM / % cell viability at 3 μM / % cell viability at 10 μM: African green monkey.
Where [9] appears, read: Vesicular stomatitis virus, Vero, read-out: EC50 BDBV.
Where [10] appears, read: Vesicular stomatitis virus, Vero, read-out: EC50 Pseudotype Assays BDBV.
Setting [11] is: Zaire ebolavirus, Vero, read-out: EC50 EBOV.
Setting [12] is: Zaire ebolavirus, Vero, read-out: EC50 Pseudotype Assays EBOV.
Setting [13] is: Vesicular stomatitis virus, Vero, 24 h, read-out: EC50 BDBV.
[14] abbreviates: Zaire ebolavirus, Vero, 24 h, read-out: EC50 EBOV.

`CN1CCC(NC(=O)C23CC4CC(C2)CC(c2ccccc2)(C4)C3)CC1` [Example A26]: the concentration giving a half-maximal response (EC50) (commonly the concentration that produces a half-maximal response) in data set [1] is more than 10000 nM; in [2], 2700 nM; in [3], 160 nM; in [4] (setting [9]) it was 90 nM; in data set [4] (setting [10]), 90 nM; in [5], more than 10000 nM. The concentration giving a half-maximal response (EC50) in data set [6] (setting [11]) and in data set [6] (setting [12]) was 120 nM each time. The CC50 in the data set “in vitro” (CC50) was 34000 nM; in “in vitro” (Cytotox CC50) it was more than 10000 nM.
With `CN1CCN(NC(=O)C23CC4CC(C)(C2)CC(c2ccccc2)(C4)C3)CC1` (stereo not shown) [Example A47], the figures for the EC50 (with wild-type Ebola Zaire [7]; in data set [4] (setting [9]); in data set [6] (setting [11])) were 710 nM, 170 nM and 70 nM, respectively. For the same compound, the CC50 in “in vitro” (CC50) is 36200 nM. For the same compound, in the data set with wild-type Ebola Zaire [8], the “Ebola Zaire SI (CC50/EC50)” value is more than 8.5.
Regarding `O=C(N1CCNCC1)C12CC3CC(C1)CC(c1ccccc1)(C3)C2` [Example A60], the EC50 in [1] is more than 10000 nM; in [2], 7900 nM; in [3], 280 nM; in data set [4] (setting [9]) it was 170 nM; in data set [4] (setting [10]), 210 nM; in data set [5], more than 10000 nM. Further, the values for the EC50 in data set [6] (setting [11]) and in data set [6] (setting [12]) were 210 nM and 260 nM, respectively. Further, the CC50 in “in vitro” (Cytotox CC50) is more than 10000 nM.
As for `CC12CC3CC(C(=O)N4CCNCC4)(C1)CC(c1ccccc1)(C3)C2` (stereo not shown) [Example A71], the EC50 came to 870 nM in the data set with wild-type Ebola Zaire [7], 130 nM in data set [4] (setting [9]) and 130 nM in data set [6] (setting [11]). Also, the CC50 in “in vitro” (CC50) worked out at 4600 nM. In addition, the “Ebola Zaire SI (CC50/EC50)” value with wild-type Ebola Zaire [8] is more than 6.
With `O=C(NC1CCN(Cc2ccccc2)CC1)C12CC3CC(C1)CC(c1ccccc1)(C3)C2` [Example B1, N-(1-benzylpiperidin-4-yl)-3-phenyladamantane-1-carboxamide], in the data set on Vero cells, the “% cell viability at 5 μM” value came to 62%. In addition, the inhibition at 5 µM in data set [1] is less than 20%. The EC50 amounted to 770 nM in data set [4] (setting [13]) and 440 nM in [6] (setting [14]).
As for `CC(C)CN1CCOC(CNC(=O)C23CC4CC(C2)CC(c2ccccc2)(C4)C3)C1` (stereo not shown) [Example B2, N-{[4-(2-methylpropyl)morpholin-2-yl]methyl}-3-phenyladamantane-1-carboxamide], in the data set on Vero cells, the “% cell viability at 3 μM” value is 100% and the “% cell viability at 10 μM” value turned out to be 97%. For the same compound, the EC50 in data set [4] (setting [13]) was 930 nM. In data set [6] (setting [14]), the EC50 came out at 570 nM.
`O=C(N1CCN(c2ccccc2)CC1)C12CC3CC(C1)CC(c1ccccc1)(C3)C2` [Example B3, 1-phenyl-4-[(3-phenyladamantan-1-yl)carbonyl]piperazine]: the “% cell viability at 5 μM” value with Vero cells is recorded as 83%. In addition, the EC50 in data set [4] (setting [13]) was more than 5000 nM; in data set [6] (setting [14]) it was 610 nM.
As to `CC(C)(CNC(=O)C12CC3CC(C1)CC(c1ccccc1)(C3)C2)N1CCOCC1` [Example B4, N-[2-methyl-2-(morpholin-4-yl)propyl]-3-phenyladamantane-1-carboxamide], in the data set on Vero cells, the “% cell viability at 3 μM” value was determined as 100% and the “% cell viability at 10 μM” value amounted to 114%. Also, the EC50 in data set [4] (setting [13]) worked out at 2690 nM. The EC50 in data set [6] (setting [14]) is 690 nM.
As to `O=C(N[C@@H]1CCNC1)C12CC3CC(C1)CC(c1ccccc1)(C3)C2` [Example B5, 3-phenyl-N-[(3R)-pyrrolidin-3-yl] adamantane-1-carboxamide], the “% cell viability at 5 μM” value with Vero cells stood at 97%. For the same compound, in data set [1], the inhibition at 5 µM was less than 20%. For the same compound, the half-maximal effective concentration (EC50) in [4] (setting [13]) amounted to 560 nM; in data set [6] (setting [14]), 790 nM.
With `COc1ccc(N2CCN(CCCNC(=O)C34CC5CC(C3)CC(c3ccccc3)(C5)C4)CC2)cc1` [Example B6, N-{3-[4-(4-methoxyphenyl)piperazin-1-yl]propyl}-3-phenyl adamantane-1-carboxamide], in the data set with Vero cells, the “% cell viability at 3 μM” value is recorded as 75% and the “% cell viability at 10 μM” value was 25%. Also, the EC50 in data set [4] (setting [13]) is 1600 nM. In addition, in data set [6] (setting [14]), the half-maximal effective concentration (EC50) is 920 nM.
For `COc1ccc(C(CNC(=O)C23CC4CC(C2)CC(c2ccccc2)(C4)C3)N2CCOCC2)cc1` (stereo not shown) [Example B7, N-[2-(4-methoxyphenyl)-2-(morpholin-4-yl)ethyl]-3-phenyl adamantane-1-carboxamide], in that order: 112%, 95%, 3100 nM and 3200 nM.
In the case of `O=C(NCC(c1cccs1)N1CCOCC1)C12CC3CC(C1)CC(c1ccccc1)(C3)C2` (stereo not shown) [Example B8, N-[2-(morpholin-4-yl)-2-(thiophen-2-yl)ethyl]-3-phenyladamantane-1-carboxamide], in the data set with Vero cells, the “% cell viability at 3 μM” value is 103% and the “% cell viability at 10 μM” value is recorded as 90%. Moreover, the EC50 in [4] (setting [13]) was found to be 4600 nM. Further, the half-maximal effective concentration (EC50) in data set [6] (setting [14]) was found to be 3600 nM.
For the compound `O=C(NC1CCN(Cc2ccccc2)CC1)C12CC3CC(CC(Cl)(C3)C1)C2` [Example B9, N-(1-benzylpiperidin-4-yl)-3-chloro adamantane-1-carboxamide], in the data set on Vero cells, the “% cell viability at 3 μM” value worked out at 112% and the “% cell viability at 10 μM” value worked out at 104%. For the same compound, the concentration giving a half-maximal response (EC50) in [4] (setting [13]) amounted to 3100 nM. The EC50 in data set [6] (setting [14]) was found to be 3800 nM.
In the case of `O=C(CN1CCN(C(=O)C23CC4CC(C2)CC(c2ccccc2)(C4)C3)CC1)NC1CC1` [Example B10, N-cyclopropyl-2-{4-[(3-phenyladamantan-1-yl)carbonyl]piperazin-1-yl}acetamide], the inhibition at 5 µM in data set [1] is less than 20%. In addition, the EC50 in data set [6] (setting [14]) was less than 5000 nM.
`Cc1ccc(C23CC4CC(CC(C(=O)NC5CN6CCC5CC6)(C4)C2)C3)cc1` (stereo not shown) [Example B11, N-{1-azabicyclo[2.2.2]octan-3-yl}-3-(4-methylphenyl)adamantane-1-carboxamide]: the “% cell viability at 5 μM” value in the data set on Vero cells was found to be 92%. Moreover, the inhibition at 5 µM in data set [1] is less than 20%. In data set [6] (setting [14]), the EC50 is less than 5000 nM.
As to `CC12CC3CC(C)(C1)CC(C(=O)NCCN1CCCCC1)(C3)C2` [Example B12, 3,5-dimethyl-N-[2-(piperidin-1-yl)ethyl] adamantane-1-carboxamide], the “% cell viability at 5 μM” value in the data set on Vero cells was determined as 90%. Moreover, the inhibition at 5 µM in data set [1] is less than 20%. For the same compound, the EC50 in [6] (setting [14]) worked out at 50000 nM.
In the case of `Cc1ccc(C23CC4CC(CC(C(=O)N5CCN(Cc6ccccc6)CC5)(C4)C2)C3)cc1` [Example B13, 1-benzyl-4-{[3-(4-methylphenyl)adamantan-1-yl]carbonyl}piperazine], the inhibition at 5 µM in [1] was less than 20%. The EC50 in data set [4] (setting [13]) and in data set [6] (setting [14]) was more than 5000 nM throughout.
Consider `Cc1ccc(C23CC4CC(CC(C(=O)N5CCN(C)CC5)(C4)C2)C3)cc1` [Example B14, 1-methyl-4-{[3-(4-methylphenyl)adamantan-1-yl]carbonyl} piperazine], for which, in the data set with Vero cells, the “% cell viability at 5 μM” value came to 95%. The inhibition at 5 µM in [1] was less than 20%. In addition, the 50% effective concentration (EC50) in [6] (setting [14]) was 5600 nM.
For the compound `O=C(NC1CCN(Cc2ccccc2)CC1)C12CC3CC(CC(C3)C1)C2` [Example B15, N-(1-benzylpiperidin-4-yl)adamantane-1-carboxamide], the “% cell viability at 3 μM” value in the data set with Vero cells was determined as 99%. Moreover, the “% cell viability at 10 μM” value in the data set with Vero cells was determined as 98%. Further, the EC50 in [4] (setting [13]) came out at 3900 nM; in data set [6] (setting [14]), 5900 nM.
`Cc1ccccc1-c1nnn(CC(=O)NC(C)C23CC4CC(CC(C4)C2)C3)n1` (stereo not shown) [Example D42, N-[1-(adamantan-1-yl)ethyl]-2-[5-(2-methylphenyl)-2H-1,2,3,4-tetrazol-2-yl] acetamide]: in the data set with Vero cells, the CC50 was more than 10000 nM. The EC50 in [4] (read-out: EC50 BDBV) was found to be 3900 nM; in data set [6] (read-out: EC50 EBOV), 3200 nM.
For the compound `N[C@H]1CC[C@H](NC(=O)NC23CC4CC(C2)CC(c2ccccc2)(C4)C3)CC1` [Example E2, 1-(4-aminocyclohexyl)-3-(3-phenyladamantan-1-yl)urea], the results for the concentration giving a half-maximal response (EC50) in data set [4] (setting [9]) and in data set [6] (setting [11]) were 610 nM and 870 nM, respectively. For the same compound, the CC50 in “in vitro” (CC50) is 12600 nM.
For the compound `O=C(NC12CC3CC(C1)CC(c1ccccc1)(C3)C2)C1CCNCC1` [Example E3, N-(3-phenyladamantan-1-yl)piperidine-4-carboxamide], the EC50 in data set [4] (setting [9]) is 270 nM; in data set [6] (setting [11]), more than 1000 nM. The CC50 in the data set “in vitro” (CC50) amounted to 36300 nM.
As to `O=C(CC1CCNCC1)NC12CC3CC(C1)CC(c1ccccc1)(C3)C2` [Example E4, N-(3-phenyladamantan-1-yl)-2-(piperidin-4-yl)acetamide], the EC50 worked out at 790 nM in data set [4] (setting [9]) and 1080 nM in data set [6] (setting [11]). In addition, the CC50 in the data set “in vitro” (CC50) came out at 23100 nM.
With `N[C@H]1CC[C@H](C(=O)NC23CC4CC(C2)CC(c2ccccc2)(C4)C3)CC1` [Example E5, trans-4-amino-N-(3-phenyladamantan-1-yl)cyclohexane-1-carboxamide], the EC50 in data set [4] (setting [9]) came out at 230 nM; in data set [6] (setting [11]), 680 nM. Also, in “in vitro” (CC50), the CC50 was 13300 nM.
`O=C(NCC12CC3CC(C1)CC(c1ccccc1)(C3)C2)C1CCNCC1` [Example E6, N-[(3-phenyladamantan-1-yl)methyl]piperidine-4-carboxamide]: the EC50 in [4] (setting [9]) came out at 200 nM; in data set [6] (setting [11]) it was 710 nM. In addition, the CC50 in “in vitro” (CC50) was found to be 11900 nM.
